Experimental data from patent publication US20260337190A1, “CRYSTAL FORM OF PYRIDINOPYRIMIDINONE COMPOUND, ACID SALT THEREOF, CRYSTAL FORM OF ACID SALT THEREOF, AND USE” (Wuhan Humanwell Innovative Drug Research and Development …, priority 2022, published 2026).
Entries after “also recorded” stand apart in the source; their conditions may differ.

Assays:
[1] = Mouse pharmacokinetic test, oral gavage; assay type: in vivo, male ICR mice; conditions: summary statement; listed as compound of the present disclosure
Experimental: Male ICR mice (20 to 25 g) were used, and fasted overnight. Three mice were taken and orally administered by gavage (10 mg/kg). Blood was collected before the administration, and at 15 min, 30 min, 1 h, 2 h, 4 h, 8 h, and 24 h after the administration. 6,800 g of the blood samples were centrifuged at 2 to 8 °C for 6 min, and plasma was collected and stored at −80 °C The plasma at each time point was taken and added with an acetonitrile solution containing internal standard in 3 to 5 times the amount, vortexed and mixed for 1 min, and centrifuged at 13,000 rpm/min at 4 °C for 10 min. The supernatant was collected, added with water in 3 times the amount, and mixed. An appropriate amount of the mixture was taken for LC-MS/MS analysis. The main pharmacokinetic parameters were analyzed using WinNonlin 7.0 software with non-compartmental model.

LOVO tumor = experiment: In vivo efficacy on LOVO colorectal cancer; set-up: species or system mice
Experimental: After one week of adaptive feeding of mice, LOVO cells in a logarithmic phase were resuspended in serum-free F12K, 5×10^6 LOVO cells were inoculated subcutaneously at the right flank at 100 μL per mouse, and tumor growth was observed regularly. When the tumor grew to an average volume of 150 to 200 mm^3, the mice were randomly divided into a model group and an administration group based on the tumor size and body weight. The tumor size and body weight were measured and recorded before and during the administration. After the treatment, the tumor size in the model group was compared with that in the administration group to determine the efficacy.

CYP3A4 = target: T1, CYP3A4 (Homo sapiens, UniProt P08684); experiment: Inhibition of cytochrome P450 CYP3A4 (substrates midazolam and testosterone); assay type: in vitro ADME; conditions: role: inhibitor; summary statement
T1 construct: probe substrates midazolam and testosterone, ketoconazole control
Experimental: The inhibitory potential of compounds on cytochrome P450 (CYP450) subtype CYP3A4 (two substrates of midazolam and testosterone) was detected. First, the compound to be tested was prepared into a 10 mM stock solution in DMSO solvent, and the CYP3A4 inhibitor ketoconazole was prepared as 10 mM, 2.5 mM, and 2.5 mM stock solutions in DMSO solvent. The test compound and ketoconazole were diluted to 400-fold final concentration (compound: 10 μM, ketoconazole: 2.5 μM) with acetonitrile.
NADPH cofactor (10 mL of potassium phosphate buffer added with 66.7 mg NADPH) at 4-fold final concentration and substrates were prepared with potassium phosphate buffer (0.1 M, pH=7.4), with CYP3A4 substrate midazolam at a final concentration of 320 μM and CYP3A4 substrate testosterone at a final concentration of 20 μM.
A human liver microsome solution at a concentration of 0.2 mg/mL was prepared with potassium phosphate buffer on ice. A solution of the compound to be tested and a control inhibitor (control compound) solution at 2-fold final concentration were prepared with the human liver microsome solution on ice. The test wells were added with 30 mL of the test compound solution and the control inhibitor solution respectively, and then added with 15 mL of the substrate for duplication. […]

KRAS G12C-SOS1 [2] = target: T2, KRAS G12C-SOS1 (Homo sapiens, UniProt Q07889); experiment: Inhibitory effect on KRAS G12C-SOS1; assay type: biochemical; set-up: SOS1 catalytic domain likely; conditions: summary statement
T2 sequence (Q07889 1-1333): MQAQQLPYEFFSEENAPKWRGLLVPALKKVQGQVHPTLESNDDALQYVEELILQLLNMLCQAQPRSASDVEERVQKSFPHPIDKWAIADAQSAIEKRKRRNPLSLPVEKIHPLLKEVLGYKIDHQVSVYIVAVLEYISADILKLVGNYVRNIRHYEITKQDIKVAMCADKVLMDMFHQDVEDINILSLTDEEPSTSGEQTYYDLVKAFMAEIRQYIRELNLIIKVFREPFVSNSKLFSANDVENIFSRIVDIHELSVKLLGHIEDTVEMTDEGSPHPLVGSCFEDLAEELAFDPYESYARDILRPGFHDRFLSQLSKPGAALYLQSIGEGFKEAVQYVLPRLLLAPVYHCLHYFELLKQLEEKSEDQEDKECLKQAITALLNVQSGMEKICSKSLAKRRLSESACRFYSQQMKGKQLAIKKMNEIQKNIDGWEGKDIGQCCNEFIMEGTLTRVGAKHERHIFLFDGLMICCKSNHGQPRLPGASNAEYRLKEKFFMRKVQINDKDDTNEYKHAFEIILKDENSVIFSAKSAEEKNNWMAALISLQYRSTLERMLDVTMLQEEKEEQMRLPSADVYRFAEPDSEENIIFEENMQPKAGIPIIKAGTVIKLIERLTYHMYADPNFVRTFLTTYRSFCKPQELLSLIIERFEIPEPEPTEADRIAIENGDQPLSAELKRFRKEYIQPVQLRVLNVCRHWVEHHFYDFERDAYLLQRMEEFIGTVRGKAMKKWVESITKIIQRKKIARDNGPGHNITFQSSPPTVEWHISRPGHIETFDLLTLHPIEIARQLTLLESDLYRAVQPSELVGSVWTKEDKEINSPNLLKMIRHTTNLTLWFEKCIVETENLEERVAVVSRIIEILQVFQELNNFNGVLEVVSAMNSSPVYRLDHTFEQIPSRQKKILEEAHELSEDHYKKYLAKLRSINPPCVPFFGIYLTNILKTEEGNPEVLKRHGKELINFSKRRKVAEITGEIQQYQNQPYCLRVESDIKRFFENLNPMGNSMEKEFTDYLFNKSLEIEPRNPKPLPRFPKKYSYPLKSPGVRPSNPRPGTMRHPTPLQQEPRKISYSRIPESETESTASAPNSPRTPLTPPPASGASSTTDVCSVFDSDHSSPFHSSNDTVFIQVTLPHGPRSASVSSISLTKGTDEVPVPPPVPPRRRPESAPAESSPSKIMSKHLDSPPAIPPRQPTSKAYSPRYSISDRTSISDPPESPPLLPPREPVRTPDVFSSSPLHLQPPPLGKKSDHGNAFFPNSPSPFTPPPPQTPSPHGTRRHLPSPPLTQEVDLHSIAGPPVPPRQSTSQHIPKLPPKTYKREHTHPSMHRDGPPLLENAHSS

KRAS G12C-SOS1 [3] = target: T2, KRAS G12C-SOS1; experiment: Inhibition of KRAS G12C::SOS1 binding; conditions: summary statement
[4] = Human liver microsome stability; assay type: in vitro ADME
Experimental: The human liver microsome stability test was performed by incubating the compound and human liver microsomes in vitro. First, the compound to be tested was prepared into a 10 mM stock solution in DMSO solvent, and then the compound was diluted to 0.5 mM with acetonitrile. Human liver microsomes (Corning) were diluted with PBS into a microsome/buffer solution, and the solution was used to dilute 0.5 mM compound into a working solution, in which the concentration of the compound was 1.5 μM, and the concentration of human liver microsomes was 0.75 mg/mL. A deep-well plate was taken, 30 μL of the working solution was added per well, and then 15 μL of pre-heated 6 mM NADPH solution was added thereto to initiate a reaction, and the reaction was incubated at 37 °C At 0, 5, 15, 30, and 45 min of the incubation, 135 μL of acetonitrile was added to the corresponding wells to terminate the reaction. After the reaction was terminated with acetonitrile at the last time point of 45 min, the deep-well plate was vortexed for 10 min (600 rpm/min), and then centrifuged for 15 min. After centrifugation, the supernatant was collected, and added with purified water in a ratio of 1:1 to perform LC-MS/MS detection. A ratio of a peak area of compound to a peak area of internal standard at each time point was obtained, and the peak area ratios of the compound at 5, 15, 30, and 45 min were compared with the peak area ratio at 0 min to calculate the remaining percentage of the compound at each time point. T1/2 was calculated by using GraphPad 5 software.

T1 sequence (P08684 whole entry): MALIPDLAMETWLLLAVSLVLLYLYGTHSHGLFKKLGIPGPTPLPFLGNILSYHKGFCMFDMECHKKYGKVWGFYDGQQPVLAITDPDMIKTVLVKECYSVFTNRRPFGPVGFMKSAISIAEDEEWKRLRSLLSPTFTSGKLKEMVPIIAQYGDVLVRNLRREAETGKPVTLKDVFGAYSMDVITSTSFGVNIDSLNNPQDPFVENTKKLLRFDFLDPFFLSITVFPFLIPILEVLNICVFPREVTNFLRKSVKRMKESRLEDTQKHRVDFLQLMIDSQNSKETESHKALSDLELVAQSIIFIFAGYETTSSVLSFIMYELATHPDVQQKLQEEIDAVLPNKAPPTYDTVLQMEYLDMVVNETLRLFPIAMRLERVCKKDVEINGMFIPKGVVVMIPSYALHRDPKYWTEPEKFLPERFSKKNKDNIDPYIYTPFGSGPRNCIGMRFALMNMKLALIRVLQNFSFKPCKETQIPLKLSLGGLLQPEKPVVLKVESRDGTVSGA

## Cc1nc(N[C@H](C)c2cccc(S(F)(F)(F)(F)F)c2)c2cn(C3(CF)CC3)c(=O)cc2n1 [compound of formula I, (R)-6-(1-(fluoromethyl)cyclopropyl)-2-methyl-4-((1-(3-(pentafluorosulfanyl)phenyl)ethyl)amino)pyrido[4,3-d]pyrimidin-7(6H)-one]
[1]
  pharmacokinetic properties / exposure: high exposure; also recorded: excellent pharmacokinetic properties
LOVO tumor; comparison with control compound II
  inhibitory effect on LOVO tumor tissue growth vs control compound II: better than that of the control compound II
LOVO tumor; mouse, in vivo
  inhibitory effect on LOVO tumor tissue growth: significant inhibitory effect
CYP3A4
  inhibitory effect on CYP3A4 enzymes: no inhibitory effect
KRAS G12C-SOS1 [2]
  inhibitory effect on KRAS G12C-SOS1: significant inhibitory effect
KRAS G12C-SOS1 [3]
  inhibitory effect on KRAS G12C::SOS1 binding: significant inhibitory effect
[4]; human liver microsomes, 30 min, 37 °C, NADPH, read-out: Remaining percentage of compound after incubation for 30 min
  remaining at 0.5 h: 98.7%
[4]; summary statement
  hepatic metabolic stability: good hepatic metabolic stability
  metabolism in the human body: slow metabolism in the human body
